From the supplement of paper PMC10307832

Legend:
Experiment in all cases: relative viability (nuclei count vs DMSO), 5 days (fraction); higher = more cells survive
[1] = compound: CCn1c(-c2nonc2N)nc2cnc(Oc3cccc(NC(=O)c4ccc(OCCN5CCOCC5)cc4)c3)cc21 + O=C(CCCCCCC(=O)Nc1ccccc1)NO [Vorinostat] (partner 1 µM)
Summary of the method: (§1)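 Lung cancer cell lines were pin-tool dosed in 1536-well plates on the day after seeding, with either a lone drug or a fixed anchor-drug dose plus five library-drug doses (not always all listed) in √10 steps. Nuclei were counted on 4× images after 5 days. Relative viability is the ratio of treated-well to vehicle-well nuclei counts, with each value a median of duplicate plates.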

[2] = compound: CCC1=CN=CN=C1N2CCN(CC2)CC3=NC4=C(N3)C=C(C=C4)C(F)(F)F + CC1(C)CCC(c2ccc(Cl)cc2)=C(CN2CCN(c3ccc(C(=O)NS(=O)(=O)c4ccc(N[C@H](CCN5CCOCC5)CSc5ccccc5)c(S(=O)(=O)C(F)(F)F)c4)cc3)CC2)C1 [Navitoclax] (partner 0.5 µM)
Summary of the method: as §1

[3] = compound: CCC1=CN=CN=C1N2CCN(CC2)CC3=NC4=C(N3)C=C(C=C4)C(F)(F)F + CS(=O)(=O)CCNCc1ccc(-c2ccc3ncnc(Nc4ccc(OCc5cccc(F)c5)c(Cl)c4)c3c2)o1 [Lapatinib] (partner 2 µM)
Summary of the method: as §1

[4] = compound: N=C1NC(=O)/C(=C/c2ccc(O)cc2)S1 [Mirin] + Cc1nc(Nc2ncc(C(=O)Nc3c(C)cccc3Cl)s2)cc(N2CCN(CCO)CC2)n1 [Dasatinib] (partner 0.075 µM)
Summary of the method: as §1

Row | Cell Line | relative viability ([1]; first compound 0.04 µM) | relative viability ([1]; first compound 0.1265 µM) | relative viability ([1]; first compound 0.4 µM) | relative viability ([1]; first compound 1.265 µM) | relative viability ([1]; first compound 4 µM) | relative viability ([2]; first compound 0.04 µM) | relative viability ([2]; first compound 0.1265 µM) | relative viability ([2]; first compound 0.4 µM) | relative viability ([2]; first compound 1.265 µM) | relative viability ([2]; first compound 4 µM) | relative viability ([3]; first compound 0.04 µM) | relative viability ([3]; first compound 0.1265 µM) | relative viability ([3]; first compound 0.4 µM) | relative viability ([3]; first compound 1.265 µM) | relative viability ([3]; first compound 4 µM) | relative viability ([4]; first compound 0.25 µM) | relative viability ([4]; first compound 0.7906 µM) | relative viability ([4]; first compound 2.5 µM) | relative viability ([4]; first compound 7.906 µM) | relative viability ([4]; first compound 25 µM)
1 | LOU-NH91 | 1.06 | 0.824 | 0.661 | 0.529 | 0.548 | 0.626 | 0.692 | 0.708 | 0.583 | 0.752 | 0.761 | 0.794 | 0.77 | 0.644 | 0.844 | 0.549 | 0.564 | 0.535 | 0.477 | 0.65
2 | LU99A | 0.583 | 0.376 | 0.3 | 0.427 | 0.384 | 0.846 | 0.825 | 0.864 | 0.709 | 0.657 | 0.964 | 0.989 | 0.95 | 0.926 | 0.948 | 0.574 | 0.564 | 0.509 | 0.423 | 0.531
3 | LXF-289 | 0.862 | 0.886 | 0.79 | 0.777 | 0.604 | 1.08 | 0.912 | 0.948 | 0.885 | 0.896 | 1 | 0.853 | 0.845 | 0.974 | 0.899 | 0.26 | 0.214 | 0.202 | 0.207 | 0.202
4 | NCI-H23 | 0.735 | 0.526 | 0.3 | 0.531 | 0.55 | 0.845 | 0.903 | 0.783 | 0.749 | 1.04 | 1.2 | 1.21 | 0.966 | 0.982 | 1.11 | 0.934 |  | 0.77 | 0.604 | 0.555
5 | NCI-H322M | 1.26 | 1.31 | 0.856 | 0.554 | 0.675 | 1.26 | 1.1 | 1.13 | 1.29 | 1.2 | 0.631 | 0.571 | 0.575 | 0.499 | 0.682 | 0.264 | 0.258 | 0.246 | 0.268 | 0.244
6 | NCI-H460 | 0.952 | 0.729 | 0.471 | 0.189 | 0.107 | 1.25 | 1.01 | 1.01 | 1.09 | 1.11 | 1.09 | 0.973 | 0.878 | 0.812 | 0.936 | 0.566 | 0.487 | 0.468 | 0.457 | 0.38
7 | NCI-H520 | 0.957 | 0.856 | 0.774 | 0.478 | 0.297 | 1.16 | 1.01 | 0.969 | 0.96 | 1.03 | 0.846 | 0.862 | 0.857 | 0.588 | 0.729 | 0.192 | 0.164 | 0.282 | 0.172 | 0.249
8 | NCI-H596 | 0.598 | 0.531 | 0.617 | 0.468 | 0.604 | 1.01 | 0.899 | 0.933 | 0.944 | 1 | 0.982 | 1.13 | 0.927 | 0.817 | 1.23 | 0.643 | 0.596 | 0.559 | 0.525 | 0.569
9 | NCI-H647 | 0.894 | 0.638 | 0.57 | 0.378 | 0.276 | 1.21 | 0.968 |  |  | 1.04 | 1.27 | 1.04 |  | 0.802 | 1.09 | 0.152 | 0.177 | 0.216 | 0.174 | 0.132
10 | NCI-H727 |  | 1.23 | 1.05 | 0.961 | 1.36 | 0.487 | 0.501 | 0.357 |  | 0.35 | 0.82 | 0.799 | 0.802 |  | 0.741 | 0.345 | 0.285 | 0.337 | 0.4 | 0.256
11 | NCI-H838 | 0.459 | 0.372 | 0.337 | 0.329 | 0.205 | 1.23 | 1.12 | 1.11 | 1.14 | 1.07 | 1.09 | 0.876 | 0.92 | 0.692 | 1.03 | 0.275 | 0.277 | 0.309 | 0.394 | 0.346
12 | NCI-H1355 | 0.653 | 0.668 | 0.413 | 0.377 | 0.313 | 0.987 | 0.919 | 0.903 | 0.806 | 0.973 | 1 | 0.812 | 0.952 | 0.844 | 1.1 | 0.766 | 0.724 | 0.691 | 0.564 | 0.648
13 | NCI-H1395 | 0.753 | 0.604 | 0.658 | 0.441 | 0.44 | 1.16 | 1.14 | 1.11 | 0.949 | 1.12 | 0.929 | 0.938 | 1.04 | 0.957 | 1.05 | 0.439 | 0.434 | 0.429 | 0.376 | 0.418
14 | NCI-H1437 | 0.88 | 0.93 | 0.903 | 0.682 | 0.512 | 1.09 | 1 | 0.944 | 0.822 | 0.724 | 0.777 | 0.668 | 0.74 | 0.635 | 0.641 | 0.405 | 0.41 | 0.386 | 0.309 | 0.347
15 | NCI-H1650 | 0.666 | 0.59 | 0.562 | 0.596 | 0.528 | 1.26 | 1.08 | 1.22 | 1.02 | 1.4 | 0.721 | 0.797 | 0.711 | 0.39 | 0.645 | 0.307 | 0.294 | 0.306 | 0.256 | 0.231
16 | NCI-H1651 | 0.604 | 0.639 | 0.467 | 0.292 | 0.497 | 1.06 | 0.875 | 1.04 | 0.941 | 1.01 | 0.839 | 0.827 | 0.818 | 0.787 | 0.87 | 0.417 | 0.382 | 0.501 | 0.355 | 0.376
